Measurements from PMC10287555, “Camonsertib in DNA damage response-deficient advanced solid tumors: phase 1 trial results” (Nature Medicine, 2023).

Assay: Treatment-related adverse events (TRAEs), TRESR
Format: in vivo, human
Procedure: Tolerability and safety of camonsertib was evaluated by assessment of AEs, TEAEs, serious adverse events (SAEs), DLTs, concomitant medications and procedures, physical examinations, vital sign measurements, clinical safety laboratory evaluations (hematology, chemistry and urinalysis), ECOG performance status scores and electrocardiograms.
All safety and efficacy endpoints were summarized with descriptive statistics. Safety data were summarized using the safety population, which consisted of all patients who received at least one dose of RP-3500. The DLT rate was based on the DLT-evaluable population, which included those patients in dose-escalation cohorts (M1a and M1b only) receiving ≥80% of planned doses of camonsertib, who completed all required safety evaluations and were observed through the end of cycle 1 or patients who experienced a DLT. Due to the different number of dose levels expected and the exploratory nature of the phase 1 study, anti-tumor activity parameters were primarily based on patients who received ≥1 dose of RP-3500 and had ≥1 post-baseline tumor assessment by RECIST 1.1 and/or GCIG CA-125 or PCWG3 PSA criteria, with an initial dose level of >100 mg d^−1 (dose level predicted to achieve efficacious exposure), as defined in the statistical analysis plan. Additional subgroups based on tumor types or genotypes of interest were based on this efficacy analysis set. […] Patients were, therefore, enrolled in the study and endpoints assessed regardless of sex, gender and race. No formal statistical tests were performed in this study. However, nominal P values (two-sided) were provided for the hypothesis-generating purpose of selected exploratory endpoints, without adjusting for multiplicity. A log-rank test was used in between-group comparisons for the time-to-event endpoints (PFS and DOT), and Fisher’s exact test was used in between-group comparisons for the binary endpoints (CBR, MR, etc.).

[1] = 3/4 schedule (n = 95), all grades
[2] = 5/2 schedule (n = 25), all grades

SMILES: C[C@@H]1COCCN1c1cc([C@]2(O)C[C@H]3CC[C@@H](C2)O3)c2cnn(-c3cc[nH]n3)c2n1 [camonsertib]
- Patients who discontinued due to treatment-related grade 3 anemia (1/120, after four cycles): 0.8%
- Anemia, all grades (3/4 schedule): 64%
- Anemia, grade 3 (3/4 schedule): 26%
- Fatigue TRAE, grade 3 (3/4 schedule (n = 95)): 2.1%
- Fatigue TRAE, overall (3/4 schedule (n = 95)): 27.4%
- Neutropenia TRAE, grade 3 (3/4 schedule (n = 95)): 10.5%
- Neutropenia TRAE, grade 4 (3/4 schedule (n = 95)): 3.2%
- Neutropenia TRAE, overall (3/4 schedule (n = 95)): 26.3%
- Thrombocytopenia TRAE, grade 3 (3/4 schedule (n = 95)): 6.3%
- Thrombocytopenia TRAE, grade 4 (3/4 schedule (n = 95)): 1.1%
- Thrombocytopenia TRAE, overall (3/4 schedule (n = 95)): 23.2%
- Any TRAE [1]: 82 (86.3) n (%)
- TRAE: Anemia [1]: 61 (64.2) n (%)
- TRAE: Decreased appetite [1]: 14 (14.7) n (%)
- TRAE: Diarrhea [1]: 13 (13.7) n (%)
- TRAE: Dysgeusia [1]: 5 (5.3) n (%)
- TRAE: Dyspnea [1]: 6 (6.3) n (%)
- TRAE: Fatigue [1]: 26 (27.4) n (%)
- TRAE: Nausea [1]: 23 (24.2) n (%)
- TRAE: Neutrophil count decreased/neutropenia [1]: 25 (26.3) n (%)
- TRAE: Platelet count decreased/thrombocytopenia [1]: 22 (23.2) n (%)
- TRAE: Vomiting [1]: 9 (9.5) n (%)
- TRAE: White blood cell count decreased [1]: 11 (11.6) n (%)
- Any TRAE (3/4 schedule (n = 95), grade 3): 30 (31.6) n (%)
- TRAE: Anemia (3/4 schedule (n = 95), grade 3): 25 (26.3) n (%)
- TRAE: Decreased appetite (3/4 schedule (n = 95), grade 3): 0 n (%)
- TRAE: Diarrhea (3/4 schedule (n = 95), grade 3): 0 n (%)
- TRAE: Dysgeusia (3/4 schedule (n = 95), grade 3): 0 n (%)
- TRAE: Dyspnea (3/4 schedule (n = 95), grade 3): 0 n (%)
- TRAE: Fatigue (3/4 schedule (n = 95), grade 3): 2 (2.1) n (%)
- TRAE: Nausea (3/4 schedule (n = 95), grade 3): 0 n (%)
- TRAE: Neutrophil count decreased/neutropenia (3/4 schedule (n = 95), grade 3): 10 (10.5) n (%)
- TRAE: Platelet count decreased/thrombocytopenia (3/4 schedule (n = 95), grade 3): 6 (6.3) n (%)
- TRAE: Vomiting (3/4 schedule (n = 95), grade 3): 0 n (%)
- TRAE: White blood cell count decreased (3/4 schedule (n = 95), grade 3): 4 (4.2) n (%)
- Any TRAE (3/4 schedule (n = 95), grade 4): 4 (4.2) n (%)
- TRAE: Anemia (3/4 schedule (n = 95), grade 4): 0 n (%)
- TRAE: Decreased appetite (3/4 schedule (n = 95), grade 4): 0 n (%)
- TRAE: Diarrhea (3/4 schedule (n = 95), grade 4): 0 n (%)
- TRAE: Dysgeusia (3/4 schedule (n = 95), grade 4): 0 n (%)
- TRAE: Dyspnea (3/4 schedule (n = 95), grade 4): 0 n (%)
- TRAE: Fatigue (3/4 schedule (n = 95), grade 4): 0 n (%)
- TRAE: Nausea (3/4 schedule (n = 95), grade 4): 0 n (%)
- TRAE: Neutrophil count decreased/neutropenia (3/4 schedule (n = 95), grade 4): 3 (3.2) n (%)
- TRAE: Platelet count decreased/thrombocytopenia (3/4 schedule (n = 95), grade 4): 1 (1.1) n (%)
- TRAE: Vomiting (3/4 schedule (n = 95), grade 4): 0 n (%)
- TRAE: White blood cell count decreased (3/4 schedule (n = 95), grade 4): 0 n (%)
- Nausea TRAE, overall (3/4 schedule (n = 95), all grade <3): 24.2%
- Anemia, all grades (5/2 schedule): 80%
- Anemia, grade 3 (5/2 schedule): 52%
- Any TRAE [2]: 22 (88.0) n (%)
- TRAE: Anemia [2]: 20 (80.0) n (%)
- TRAE: Decreased appetite [2]: 4 (16.0) n (%)
- TRAE: Diarrhea [2]: 0 n (%)
- TRAE: Dysgeusia [2]: 1 (4.0) n (%)
- TRAE: Dyspnea [2]: 5 (20.0) n (%)
- TRAE: Fatigue [2]: 7 (28.0) n (%)
- TRAE: Nausea [2]: 3 (12.0) n (%)
- TRAE: Neutrophil count decreased/neutropenia [2]: 6 (24.0) n (%)
- TRAE: Platelet count decreased/thrombocytopenia [2]: 7 (28.0) n (%)
- TRAE: Vomiting [2]: 3 (12.0) n (%)
- TRAE: White blood cell count decreased [2]: 1 (4.0) n (%)
- Any TRAE (5/2 schedule (n = 25), grade 3): 14 (56.0) n (%)
- TRAE: Anemia (5/2 schedule (n = 25), grade 3): 13 (52.0) n (%)
- TRAE: Decreased appetite (5/2 schedule (n = 25), grade 3): 0 n (%)
- TRAE: Diarrhea (5/2 schedule (n = 25), grade 3): 0 n (%)
- TRAE: Dysgeusia (5/2 schedule (n = 25), grade 3): 0 n (%)
- TRAE: Dyspnea (5/2 schedule (n = 25), grade 3): 0 n (%)
- TRAE: Fatigue (5/2 schedule (n = 25), grade 3): 1 (4.0) n (%)
- TRAE: Nausea (5/2 schedule (n = 25), grade 3): 0 n (%)
- TRAE: Neutrophil count decreased/neutropenia (5/2 schedule (n = 25), grade 3): 3 (12.0) n (%)
- TRAE: Platelet count decreased/thrombocytopenia (5/2 schedule (n = 25), grade 3): 2 (8.0) n (%)
- TRAE: Vomiting (5/2 schedule (n = 25), grade 3): 0 n (%)
- TRAE: White blood cell count decreased (5/2 schedule (n = 25), grade 3): 0 n (%)
- Any TRAE (5/2 schedule (n = 25), grade 4): 1 (4.0) n (%)
- TRAE: Anemia (5/2 schedule (n = 25), grade 4): 0 n (%)
- TRAE: Decreased appetite (5/2 schedule (n = 25), grade 4): 0 n (%)
- TRAE: Diarrhea (5/2 schedule (n = 25), grade 4): 0 n (%)
- TRAE: Dysgeusia (5/2 schedule (n = 25), grade 4): 0 n (%)
- TRAE: Dyspnea (5/2 schedule (n = 25), grade 4): 0 n (%)
- TRAE: Fatigue (5/2 schedule (n = 25), grade 4): 0 n (%)
- TRAE: Nausea (5/2 schedule (n = 25), grade 4): 0 n (%)
- TRAE: Neutrophil count decreased/neutropenia (5/2 schedule (n = 25), grade 4): 1 (4.0) n (%)
- TRAE: Platelet count decreased/thrombocytopenia (5/2 schedule (n = 25), grade 4): 1 (4.0) n (%)
- TRAE: Vomiting (5/2 schedule (n = 25), grade 4): 0 n (%)
- TRAE: White blood cell count decreased (5/2 schedule (n = 25), grade 4): 0 n (%)
- Tolerability (120 patients): well tolerated
- Anemia TRAE of any grade (all dose levels/schedules): 67.5%
- Anemia, grade 3 (most common drug-related toxicity) (all patients): 32%
- Anemia, grade 4 (both schedules): no grade 4 anemia was observed
